Results on two compounds are retold here after patent publication US10806794B2, “Protease inhibitors having enhanced features” (priority 2008, dated 2020).

The test system of one data set is PBMCs. Kind of data set: PBMC cytotoxicity (XTT). Type of data set: cell-based, human. Conditions: 7 days. As to the method: Mononuclear cells were isolated from fresh human peripheral blood cells by Ficoll-Hypaque density gradient by centrifugation at 600 g for 30 minutes. Banded peripheral blood mononuclear cells (PBMCs) were aspirated from the resulting interface and washed with phosphate buffered saline by low speed centrifugation. Cell viability was evaluated by Trypan Blue dye exclusion. […] Plates were incubated at 37° C., 5% CO2 for 7 days prior to cytotoxicity evaluation. XTT measurement for cytotoxicity.

A further data set deals with CYP1A2 (Homo sapiens (Human), UniProt P05177). Description: CYP450 inhibition in human liver microsomes: CYP1A2.
A further data set concerns HIV-1RF. Kind of data set: Anti-HIV cytoprotection in CEM-SS cells infected with HIV-1RF (XTT). Type of data set: cell-based. Conditions: six days, XTT; read-out: CEM-SS/HIV-1RF EC50 ± SD. The protocol:
To evaluate whether conjugated protease inhibitors retain the ability to protect against HIV-1 infection, CEM-SS cells infected with the RF strain of HIV-1 were treated with test compounds for six days, and then cell viability was monitored using the tetrazolium dye XTT. […] A value for Therapeutic Index (TI) was calculated as TC50/EC50.
(In general: Tetrazolium dyes change colour on reduction, which living cells bring about.)

Another data set has as its system Caco-2 cells. Kind of data set: in vitro. Conditions: human, Caco-2. As to the method: Absorption properties of various compounds were measured using bi-directional permeability assays in Caco-2 cells. […] The efflux ratio is calculated as the ratio of the Papp(B→A)/Papp(A→B).
The next data set has as its system HIV-1 HT/92/599. Description: HIV-1 reverse transcriptase activity after infection of fresh human PBMCs. The format is cell-based. The gist of the method:
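PHA-P/IL-2-stimulated fresh human PBMCs infected with HIV-1; supernatant reverse transcriptase activity measured by tritiated TTP incorporation on poly rA/oligo dT, 90 min at 37° C. Toxicity from 7-day uninfected PBMC culture read by XTT; TI = TC50/EC50.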

“And” between values parts separate entries of the source, which are not always exact repeats. Equal values may be shown once. Read-outs that look alike come from different tables or passages of the source. Bounds are passed on as bounds.

Sequence of CYP1A2 (P05177 whole entry): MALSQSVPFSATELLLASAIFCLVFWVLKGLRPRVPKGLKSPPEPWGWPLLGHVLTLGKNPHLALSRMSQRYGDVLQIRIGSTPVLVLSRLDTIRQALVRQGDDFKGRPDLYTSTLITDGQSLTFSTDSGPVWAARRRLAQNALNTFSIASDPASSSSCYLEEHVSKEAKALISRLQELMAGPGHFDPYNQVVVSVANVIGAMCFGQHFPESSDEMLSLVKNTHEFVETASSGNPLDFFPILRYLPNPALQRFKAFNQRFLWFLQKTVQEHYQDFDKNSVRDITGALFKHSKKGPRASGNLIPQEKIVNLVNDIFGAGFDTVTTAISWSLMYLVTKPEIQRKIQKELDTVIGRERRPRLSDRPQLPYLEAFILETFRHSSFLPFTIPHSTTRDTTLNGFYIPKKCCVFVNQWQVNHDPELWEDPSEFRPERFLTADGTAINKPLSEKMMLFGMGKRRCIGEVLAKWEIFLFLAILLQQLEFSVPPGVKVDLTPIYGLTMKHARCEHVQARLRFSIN

For orientation: IC50 means the concentration needed to halve the response being measured. The low end stands for inhibition by little substance, the high end for a need for much substance. For `COC(=O)N[C@H](C(=O)N[C@@H](Cc1ccccc1)[C@@H](O)CN(Cc1ccc(-c2ccccn2)cc1)NC(=O)[C@@H](NC(=O)OC)C(C)(C)C)C(C)(C)C` [Atazanavir, reference compound], the “XTT (PBMC) TC50” value in the data set on PBMCs was determined as 109400 nM. In addition, the IC50 on CYP1A2 was 20600 nM. In addition, the EC50 with HIV-1RF came to 15 ± 14 nM. The “A→B, ×10^−6” value with Caco-2 cells is on record as 2.04 cm/s.

Take `COCCOCCOCCOC(=O)NC(C(=O)NC(Cc1ccccc1)C(O)CN(Cc1ccc(-c2ccccn2)cc1)NC(=O)C(NC(=O)OC)C(C)(C)C)C(C)(C)C` (stereo not drawn) [mono-mPEG3-Atazanavir, {1-[N′-[2-Hydroxy-3-(2-{2-[2-(2-methoxy-ethoxy)-ethoxy]-ethoxycarbonylamino}-3,3-dimethyl-butyrylamino)-4-phenyl-butyl]-N′-(4-pyridin-2-yl-benzyl)-hydrazinocarbonyl]-2,2-dimethyl-propyl}-carbamic Acid Methyl Ester]: the “XTT (PBMC) TC50” value in the data set on PBMCs is 338900 nM. The same compound showed an IC50 on CYP1A2 of more than 25000 nM. Also, the EC50 with HIV-1 HT/92/599 (Human immunodeficiency virus 1, PBMC, 168 h, read-out: PBMC/HIV-1HT/92/599 EC50 ± SD, seven days, reverse transcriptase activity) is less than 20 nM; with HIV-1 HT/92/599 (read-out: PBMC/HIV-1HT/92/599 EC50 ± SD, seven days, reverse transcriptase activity) it was 30 nM and 20.4 nM and 20 nM and 18.7 nM; with HIV-1RF it was 3 ± 2 nM.
